The record followed here is US20120172450A1, “USE OF JASMONATE FOR IMPROVING SKELETAL MUSCLE FUNCTION” (BROADY HEALTH SCIENCES, LLC, priority 2010, published 2012).

The subject of this assay is skeletal muscle fatigue and performance. Briefly: Effect of Jasmone on Muscle Fatigue and Performance in exercising subjects. The format is in vivo, human. The protocol:
Subjects ranged from 43 to 72 years old. Subjects took 50-100 micrograms of jasmone once a day. All subjects were currently performing various exercise programs. Individual data was collected as to the changes that were noted upon jasmone supplementation.
Subject one, was a person who ran and trained with weights on a regular basis. They took a simplified stress test measuring time to maximum heart rate on treadmill exertion. Pre-Jasmone time on treadmill to target heart rate was 9 minutes. Two weeks after taking Jasmone, stress test results improved to 11 minutes. After 4 weeks of jasmone protocol stress test time increased to 15 min. In addition, after 3 weeks they reported increased weight repetitions by 15 percent and within four weeks increased push ups by 20 percent with same level of exertion as before.
Subject two, was a person who ran on a regular basis. Prior to Jasmone, full exertion exercise routine consisted of approximately 2 miles at 4.5 miles per hour. After two weeks of Jasmone was able to increase routine to running time to 2.5 miles without difficulty.
Subject three (person one), was a person who biked on a regular basis. After 4 weeks of taking Jasmone they increased cycling distance by 50 percent and speed by 10 percent.
Subject four, a person reported who trained with weights on a regular basis, increased weight repetitions of 25% after 4 weeks of taking Jasmone. Subject four, a person regularly performed an exercise routine including weight machines. Prior to taking Jasmone, on a particular machine, they were able to perform 12 repetitions at 60 pds of weight. Two weeks after taking Jasmone was able to increase weight to 80 and repetitions increased to 14.
Subject five, was a person, who regularly exercised but due to travel was unable to maintain normal exercise routine during trial. […] Two examples of this include running through an airport carrying luggage and another running in extreme heat.

Turning to `CC/C=C\CC1=C(C)CCC1=O` [Jasmone, jasmone], under “Subject five, normal exercise routine not maintained during trial”, the self-reported running ability result is “increased ability to run far and fast without getting winded”. Further, the “increase in weight repetitions” value (Subject four, after 4 weeks of taking Jasmone) amounted to 25% and the “increase in weight repetitions” value (Subject one, after 3 weeks, same level of exertion as before) is on record as 15%. Also, the “self-reported strength and endurance” value (Subject four, after four weeks of Jasmone) is “felt increased strength and endurance”. Further, under “Subject four, two weeks after taking Jasmone, prior 12 repetitions”, the “repetitions on weight machine” value stood at 14. Also, where the note is “Subject four, two weeks after taking Jasmone, prior 60 pds”, the “weight on weight machine” value worked out at 80 pds. Besides, for the setting “Subject one, after 4 weeks of jasmone, pre-Jasmone 9 minutes”, the “stress test time (time on treadmill to target heart rate)” value amounted to 15 min. In addition, the “time on treadmill to target heart rate (simplified stress test)” value (Subject one, two weeks after taking Jasmone, 50-100 micrograms once a day, pre-Jasmone 9 minutes) was determined as 11 min. For the same compound, the “increase in push ups” value (Subject one, within four weeks, same level of exertion as before) is on record as 20%. In addition, the “increase in cycling distance” value (Subject three (person one), after 4 weeks of taking Jasmone) worked out at 50%. Where the note is “Subject three, after 4 weeks of taking Jasmone”, the “increase in cycling speed” value turned out to be 10%. Further, under “Subject two, after additional two weeks”, the workout fatigue entry is “workout fatigue continued to improve”. The compound further gave a running routine distance (Subject two, after two weeks of Jasmone, prior approximately 2 miles at 4.5 miles per hour) of 2.5 miles.
